{"source": "patent US20110251158A1", "about": "“FULLERENE THERAPIES FOR INFLAMMATION AND INHIBITION OF BUILD-UP OF ARTERIAL PLAQUE” (Luna Innovations Incorporated, priority 2008, published 2011)", "key": {"Solubility": {"assay": "Solubility", "format": "physicochemical"}, "U937 monocyte cells": {"tested_on": "U937 monocyte cells", "settings": "for % Viability: human", "description": "The human monocytic cell line U937 was obtained from the American Type Culture Collection (Manassas, Va., USA). Cells are maintained in RPMI 1640 media enriched with 10% heat-inactivated FBS, 2 mM L-Glutamine, 10 mM HEPES buffer, 0.1 mM non-essential Amino Acids, 1% antibiotic/antimycotic, and 50 uM beta mercaptoethanol at 37° C., 6% CO2."}}, "note": "Where two headings read alike, the source gives them in different places.", "data": [{"compound": "C70-Tetraphosphate", "values": [{"measurement": "dissolution in aqueous solution", "setting": "Solubility; slightly basic aqueous solution, pH adjusted to 7.4", "value": "remained dissolved"}]}, {"compound": "O=C1O[C@H]([C@@H](O)CO)C(O)=C1O", "note": "[Vitamin C]", "values": [{"measurement": "toxic effects on the viability of serum-starved cell", "setting": "U937 monocyte cells", "value": "did not have toxic effects"}, {"measurement": "% Viability", "setting": "U937 monocyte cells; 3 day, 0.67 uM", "value": "98.8% ± 0.06"}, {"measurement": "% Viability", "setting": "U937 monocyte cells; 3 day, 6.7 uM", "value": "97.4% ± 1.86"}, {"measurement": "% Viability", "setting": "U937 monocyte cells; 3 day, 67 uM", "value": "98.2% ± 0.67"}, {"measurement": "% Viability", "setting": "U937 monocyte cells; 6 day, 0.67 uM", "value": "93.8% ± 1.09"}, {"measurement": "% Viability", "setting": "U937 monocyte cells; 6 day, 6.7 uM", "value": "91.2% ± 0.33"}, {"measurement": "% Viability", "setting": "U937 monocyte cells; 6 day, 67 uM", "value": "90.9% ± 0.07"}, {"measurement": "% Viability", "setting": "U937 monocyte cells; 9 day, 0.67 uM", "value": "60.9% ± 1.13"}, {"measurement": "% Viability", "setting": "U937 monocyte cells; 9 day, 6.7 uM", "value": "61.8% ± 1.10"}, {"measurement": "% Viability", "setting": "U937 monocyte cells; 9 day, 67 uM", "value": "60.7% ± 0.28"}]}, {"compound": "C70-(DMAE)4", "values": [{"measurement": "solubility in buffer", "setting": "Solubility; buffer", "value": "moderate solubility"}]}, {"compound": "C70-Tetrapyridine", "values": [{"measurement": "solubility", "setting": "Solubility; DI water and phosphate buffered saline", "value": "> 2000", "unit": "µg/mL"}]}]}
